How the values were obtained:
Mus musculus = assay: Unbound clearance in mouse at 10 mg/kg, po; format: ADME, organism-based; details: in vivo
[1] = molecular target: T1, E3 ubiquitin-protein ligase TRIM33 (Homo sapiens) (UniProt Q9UPN9); assay: Binding affinity to human TRIM33-phd-bromo expressed in bacterial system assessed as remaining binding level at 1 uM by BROMOscan assay relative to control
T1 sequence (whole entry): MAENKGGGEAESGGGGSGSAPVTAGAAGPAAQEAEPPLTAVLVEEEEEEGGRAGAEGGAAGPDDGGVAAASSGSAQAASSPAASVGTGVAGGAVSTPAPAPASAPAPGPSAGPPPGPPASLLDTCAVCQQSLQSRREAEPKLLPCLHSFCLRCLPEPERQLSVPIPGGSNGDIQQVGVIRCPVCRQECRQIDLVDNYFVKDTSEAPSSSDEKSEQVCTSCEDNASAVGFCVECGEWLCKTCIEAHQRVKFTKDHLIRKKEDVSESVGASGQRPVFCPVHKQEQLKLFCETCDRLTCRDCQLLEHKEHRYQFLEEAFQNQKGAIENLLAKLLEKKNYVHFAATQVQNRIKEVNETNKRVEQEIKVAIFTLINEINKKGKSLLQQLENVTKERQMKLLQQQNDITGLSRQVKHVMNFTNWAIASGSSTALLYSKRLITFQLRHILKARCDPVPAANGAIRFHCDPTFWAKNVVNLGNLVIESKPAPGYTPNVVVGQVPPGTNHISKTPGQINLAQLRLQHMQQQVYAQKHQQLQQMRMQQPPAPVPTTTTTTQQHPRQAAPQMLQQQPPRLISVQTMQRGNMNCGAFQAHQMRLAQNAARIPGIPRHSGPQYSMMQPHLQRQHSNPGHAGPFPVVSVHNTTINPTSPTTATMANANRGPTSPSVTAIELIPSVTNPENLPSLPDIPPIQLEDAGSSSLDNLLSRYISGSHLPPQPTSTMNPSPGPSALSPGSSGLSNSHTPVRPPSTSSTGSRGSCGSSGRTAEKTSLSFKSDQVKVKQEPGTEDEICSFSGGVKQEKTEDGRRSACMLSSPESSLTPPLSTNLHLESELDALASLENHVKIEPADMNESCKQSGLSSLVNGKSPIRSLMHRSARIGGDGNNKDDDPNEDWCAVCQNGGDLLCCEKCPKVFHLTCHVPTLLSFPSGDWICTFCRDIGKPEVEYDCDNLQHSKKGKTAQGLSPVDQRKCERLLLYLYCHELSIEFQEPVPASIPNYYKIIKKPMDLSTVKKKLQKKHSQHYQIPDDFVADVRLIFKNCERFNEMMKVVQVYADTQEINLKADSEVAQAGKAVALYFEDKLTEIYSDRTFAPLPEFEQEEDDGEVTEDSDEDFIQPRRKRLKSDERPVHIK

[2] = molecular target: Bromodomain testis-specific protein (Homo sapiens, UniProt Q58F21); assay: Binding affinity to BRDT bromodomain 1 to 2 (N21to P380 amino acids) (unknown origin) using Alexa647-labeled BET-inhibitor as fluorescent probe by bromodomain TR-FRET binding assay
[3] = Intrinsic unbound clearance in human liver microsomes; format: ADME, microsome
[4] = molecular target: T2, Transcription intermediary factor 1-alpha (Homo sapiens) (UniProt O15164); assay: Binding affinity to human TRIM24-phd-bromo expressed in bacterial system assessed as remaining binding level at 1 uM by BROMOscan assay relative to control
T2 sequence (whole entry): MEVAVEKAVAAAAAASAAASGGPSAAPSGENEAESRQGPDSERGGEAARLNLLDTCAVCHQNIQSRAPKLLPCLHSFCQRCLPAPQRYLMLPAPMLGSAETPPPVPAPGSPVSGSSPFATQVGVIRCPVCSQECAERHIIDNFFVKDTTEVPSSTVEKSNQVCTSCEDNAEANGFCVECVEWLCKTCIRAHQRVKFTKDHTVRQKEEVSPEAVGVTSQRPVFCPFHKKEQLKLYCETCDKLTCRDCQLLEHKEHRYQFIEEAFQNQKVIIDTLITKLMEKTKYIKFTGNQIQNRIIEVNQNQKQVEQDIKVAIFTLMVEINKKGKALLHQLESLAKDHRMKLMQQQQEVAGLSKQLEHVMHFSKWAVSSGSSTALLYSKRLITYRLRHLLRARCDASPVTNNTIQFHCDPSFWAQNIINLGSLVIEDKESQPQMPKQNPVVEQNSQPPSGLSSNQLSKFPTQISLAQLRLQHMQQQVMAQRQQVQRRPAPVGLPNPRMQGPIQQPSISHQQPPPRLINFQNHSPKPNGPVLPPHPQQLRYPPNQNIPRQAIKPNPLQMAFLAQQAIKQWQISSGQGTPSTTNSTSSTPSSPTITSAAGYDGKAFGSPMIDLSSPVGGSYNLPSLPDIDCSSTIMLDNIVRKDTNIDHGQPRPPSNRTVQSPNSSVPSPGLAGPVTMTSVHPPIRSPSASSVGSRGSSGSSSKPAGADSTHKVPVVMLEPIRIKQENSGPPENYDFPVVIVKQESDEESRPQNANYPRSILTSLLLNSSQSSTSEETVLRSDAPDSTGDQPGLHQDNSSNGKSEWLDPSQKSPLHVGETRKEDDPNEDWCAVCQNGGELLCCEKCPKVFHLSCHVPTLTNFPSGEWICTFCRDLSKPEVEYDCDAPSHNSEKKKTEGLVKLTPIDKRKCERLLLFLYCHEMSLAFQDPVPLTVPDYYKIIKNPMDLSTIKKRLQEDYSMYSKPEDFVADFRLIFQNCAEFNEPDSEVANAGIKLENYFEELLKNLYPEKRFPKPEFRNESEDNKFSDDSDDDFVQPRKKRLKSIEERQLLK

[5] = molecular target: T3, Bromodomain-containing protein 9 (Homo sapiens) (UniProt Q9H8M2); assay: Binding affinity to human BRD9 expressed in bacterial system assessed as remaining binding level at 1 uM by BROMOscan assay relative to control
T3 sequence (whole entry): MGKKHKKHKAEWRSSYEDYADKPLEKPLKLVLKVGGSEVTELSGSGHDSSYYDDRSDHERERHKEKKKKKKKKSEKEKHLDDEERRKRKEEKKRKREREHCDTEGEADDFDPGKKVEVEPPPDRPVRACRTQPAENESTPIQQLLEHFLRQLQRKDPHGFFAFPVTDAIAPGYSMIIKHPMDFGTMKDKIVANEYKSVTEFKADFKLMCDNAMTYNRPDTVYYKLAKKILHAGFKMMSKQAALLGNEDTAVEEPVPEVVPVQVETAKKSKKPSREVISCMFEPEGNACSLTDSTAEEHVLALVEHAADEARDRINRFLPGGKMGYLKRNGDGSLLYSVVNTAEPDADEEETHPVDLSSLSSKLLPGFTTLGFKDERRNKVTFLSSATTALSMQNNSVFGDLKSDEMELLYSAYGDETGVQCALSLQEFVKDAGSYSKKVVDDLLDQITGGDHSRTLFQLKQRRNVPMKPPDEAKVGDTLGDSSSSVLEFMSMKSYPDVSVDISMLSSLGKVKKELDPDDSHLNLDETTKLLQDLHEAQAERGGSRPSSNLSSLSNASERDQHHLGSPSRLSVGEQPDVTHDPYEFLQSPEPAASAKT

Structure (SMILES)	CL free (Mus musculus)	Activity [1]	Ki [2]	CL free [3]	Activity [4]	Activity [5]
Cn1cc2c3c(c[nH]c(=O)c31)-c1cc(CS(C)(=O)=O)ccc1N(c1ccc(F)cc1)C2	78 L/h/kg	100%	5.9 nM	5.5 L/h/kg	90%	96%
Cn1cc2c3c(c[nH]c3c1=O)CN(c1ccc(F)cc1F)c1ccc(CS(C)(=O)=O)cc1-2	45 L/h/kg	85%	4.2 nM	< 3.1 L/h/kg	67%	56%
Cn1cc2c3c(c[nH]c3c1=O)CN(c1ccccn1)c1ccc(CS(C)(=O)=O)cc1-2	9.4 L/h/kg	83%	0.69 nM	3 L/h/kg	54%	38%

Reference: ChEMBL document CHEMBL4190379 (Bioorg Med Chem Lett, 2018)
